Consider 5 molecules from patent US20240158446A1, “CYCLIC COMPOUND HAVING SELECTIVE INHIBITORY ACTION ON KRAS OVER HRAS AND NRAS” (CHUGAI SEIYAKU KABUSHIKI KAISHA, priority 2021, published 2024).

The target in test [1] is GDP-bound HRAS wild-type protein (Homo sapiens, UniProt P01112). Description: Binding to HRAS by surface plasmon resonance (SPR), Single Cycle Kinetics. The note with it: SPR, GDP-bound HRAS wild-type protein vs GDP-bound KRAS wild-type protein.
Test [2] addresses GDP-bound NRAS wild-type protein (Homo sapiens, UniProt P01111). Description: Binding to NRAS by surface plasmon resonance (SPR), Single Cycle Kinetics. The note with it: SPR, GDP-bound NRAS wild-type protein vs GDP-bound KRAS wild-type protein.
Test [3] has as its target GDP-bound KRAS wild-type protein (Homo sapiens, UniProt P01116). In words: Binding to KRAS by surface plasmon resonance (SPR), Single Cycle Kinetics. The note with it: SPR, Single Cycle Kinetics, GDP-bound KRAS wild-type protein, read-out: KRAS KD.
For test [4], the system named is human lung cancer strain NCI-H441.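 Also: cell proliferation inhibition after four days measured by CellTiter-Glo.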

Read-outs that look alike come from different tables or passages of the source.

GDP-bound KRAS wild-type protein, sequence (P01116 whole entry): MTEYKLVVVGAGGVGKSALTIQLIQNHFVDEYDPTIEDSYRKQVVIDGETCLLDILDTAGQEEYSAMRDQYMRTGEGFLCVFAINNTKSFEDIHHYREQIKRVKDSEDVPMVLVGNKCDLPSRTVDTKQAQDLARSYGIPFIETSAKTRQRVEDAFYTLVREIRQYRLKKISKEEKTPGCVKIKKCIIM
GDP-bound NRAS wild-type protein, sequence (P01111 whole entry): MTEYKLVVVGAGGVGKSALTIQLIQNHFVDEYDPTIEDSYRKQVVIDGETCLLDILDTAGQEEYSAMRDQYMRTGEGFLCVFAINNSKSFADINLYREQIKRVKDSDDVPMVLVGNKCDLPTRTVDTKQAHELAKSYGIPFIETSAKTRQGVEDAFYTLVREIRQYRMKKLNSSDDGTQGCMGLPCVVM
GDP-bound HRAS wild-type protein, sequence (P01112 whole entry): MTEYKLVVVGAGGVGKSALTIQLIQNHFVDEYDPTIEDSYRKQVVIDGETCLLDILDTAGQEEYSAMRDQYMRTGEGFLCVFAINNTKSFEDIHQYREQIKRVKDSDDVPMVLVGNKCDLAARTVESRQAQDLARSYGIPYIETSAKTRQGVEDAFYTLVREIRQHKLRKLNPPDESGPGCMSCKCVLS

By Kd is commonly meant a measure of binding affinity in units of concentration. Usually IC50 stands for the concentration needed to halve the response being measured. Lower therefore signals greater potency in that assay. For `CC[C@H](C)[C@@H]1NC(=O)[C@H](CC)N(C)C(=O)C[C@@H](C(=O)N2CCOCC2)N(C)C(=O)[C@H](C2CCCC2)N(C)C(=O)C2(CCC2)NC(=O)[C@@H]2CCCN2C(=O)[C@H](CCc2cc(F)c(C(F)(F)F)c(F)c2)NC(=O)CN(C)C(=O)[C@H](Cc2ccc(C(F)(F)F)cc2)N2C[C@H](C)[C@H](C)C[C@@H](C2=O)N(C)C(=O)[C@@H]2CCN2C1=O` [PP1363], the “HRAS/KRAS (ratio of KD value for HRAS to KD value for KRAS)” value in test [1] (KD ratio class) is “B (a compound having 3 or more and less than 10 is denoted as B)”. In test [2] (KD ratio class), the “NRAS/KRAS (ratio of KD value for NRAS to KD value for KRAS)” value was “A (a compound having 10 or more and less than 20 is denoted as A)”. Also, the Kd in test [3] (1:1 binding model) is 0.32 nM. Moreover, in test [4], the 50% inhibitory concentration (IC50) turned out to be 34.7 nM.
As to `CCO[C@@H]1C[C@H]2C(=O)NC3(CCC3)C(=O)N(C)[C@@H](C3CCCC3)C(=O)N(C)[C@H](C(=O)N(C)C)CC(=O)N(C)[C@@H](CC3CC3)C(=O)N[C@@H]([C@@H](C)CC)C(=O)N(C)CC(=O)N(C)[C@H]3C/C=C\CCN(C3=O)[C@@H](Cc3ccc(F)cc3)C(=O)N(C)CC(=O)N[C@@H](CCc3cc(F)c(C(F)(F)F)c(F)c3)C(=O)N2C1` [PP1529, (2S,8S,12R,14S,20S,23S,27S,30S,36S,38Z)-20-cyclopentyl-27-(cyclopropylmethyl)-8-[2-[3,5-difluoro-4-(trifluoromethyl)phenyl]ethyl]-12-ethoxy-2-[(4-fluorophenyl)methyl]-N,N,4,19,22,26,32,35-octamethyl-30-[(1S)-1-methylpropyl]-3,6,9,15,18,21,25,28,31,34,42-undecaoxo-spiro[1,4,7,10,16,19,22,26,29,32,35-undecazatricyclo[34.5.1.0^10,14]dotetracont-38-ene-17,1′-cyclobutane]-23-carboxamide], the “HRAS/KRAS (ratio of KD value for HRAS to KD value for KRAS)” value in test [1] (KD ratio class) is “B (a compound having 3 or more and less than 10 is denoted as B)”. For the same molecule, the “NRAS/KRAS (ratio of KD value for NRAS to KD value for KRAS)” value in test [2] (KD ratio class) was “A (a compound having 10 or more and less than 20 is denoted as A)”. Moreover, the equilibrium dissociation constant (Kd) in test [3] (1:1 binding model) is 0.081 nM. In test [4], this molecule gave a 50% inhibitory concentration (IC50) of 30.2 nM.
`CCC[C@H]1C(=O)N[C@@H]([C@@H](C)CC)C(=O)N(C)CC(=O)N(C)[C@H]2C/C=C\CCN(C2=O)[C@@H](Cc2ccc(C(F)(F)F)cc2)C(=O)N(C)CC(=O)N[C@@H](CCc2cc(F)c(C(F)(F)F)c(F)c2)C(=O)N2C[C@H](OCC)C[C@H]2C(=O)NC2(CCC2)C(=O)N(C)[C@@H](C2CCCC2)C(=O)N(C)[C@H](C(=O)N2CC3CCC(C2)O3)CC(=O)N1C` [PP1315]: the “HRAS/KRAS (ratio of KD value for HRAS to KD value for KRAS)” value in test [1] (KD ratio class) is “A (a compound having 10 or more and less than 20 is denoted as A)”. The “NRAS/KRAS (ratio of KD value for NRAS to KD value for KRAS)” value in test [2] (KD ratio class) was “AA (a compound having 20 or more is denoted as AA)”. Also, the Kd in test [3] (1:1 binding model) turned out to be 0.34 nM. The molecule also had an IC50 in test [4] of 34.5 nM.
`CC[C@H](C)[C@@H]1NC(=O)[C@H](COC)N(C)C(=O)C[C@@H](C(=O)N(CC)CC)N(C)C(=O)[C@H](C2CCCC2)N(C)C(=O)C2(CC(C)(C)C2)NC(=O)[C@@H]2C[C@H](C)CN2C(=O)[C@H](CCc2cc(F)c(C(F)(F)F)c(F)c2)NC(=O)CN(C)C(=O)[C@H](Cc2ccc(C)cc2)N2CC/C=C\C[C@@H](C2=O)N(C)C(=O)CN(C)C1=O` [PP2455]: the “HRAS/KRAS (ratio of KD value for HRAS to KD value for KRAS)” value in test [1] was “A (a compound having 10 or more and less than 20 is denoted as A)”. Besides, the “NRAS/KRAS (ratio of KD value for NRAS to KD value for KRAS)” value in test [2] is recorded as “AA (a compound having 20 or more is denoted as AA)”. Besides, the dissociation constant (Kd) in test [3] stood at 0.32 nM. The same molecule yielded an IC50 in test [4] of 23.4 nM.
For the molecule `CCO[C@@H]1C[C@H]2C(=O)NC3(CCC3)C(=O)N(C)[C@@H](C3CCCC3)C(=O)N(C)[C@H](C(=O)N3CCOCC3)CC(=O)N(C)[C@@H](CC(C)C)C(=O)N[C@@H]([C@@H](C)CC)C(=O)N3CC[C@H]3C(=O)N(C)[C@H]3C[C@@H](C)[C@@H](C)CN(C3=O)[C@@H](Cc3ccc(C(F)(F)F)cc3)C(=O)N(C)CC(=O)N[C@@H](CCc3ccc(C(F)(F)F)c(Cl)c3)C(=O)N2C1` [PP1361], in test [1] (KD ratio class), the “HRAS/KRAS (ratio of KD value for HRAS to KD value for KRAS)” value was “B (a compound having 3 or more and less than 10 is denoted as B)”. Also, the “NRAS/KRAS (ratio of KD value for NRAS to KD value for KRAS)” value in test [2] (KD ratio class) is “A (a compound having 10 or more and less than 20 is denoted as A)”. Further, the Kd in test [3] (1:1 binding model) stood at 0.15 nM. In test [4], this molecule returned an IC50 of 6.2 nM.
